According to patent US10617680B2 (CELGENE QUANTICEL RESEARCH, INC., priority 2017, dated 2020):
Like-named read-outs stand apart in the source and are kept apart here.

Molecular target: CBP (Homo sapiens (Human), UniProt Q92793)
Experiment: In vitro CBP inhibition (AlphaScreen, biotinylated H4-tetraacetyl peptide)
Type: binding
Method in brief: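 His-tagged CBP expressed in E. coli (50 nM final) incubated with biotinylated H4K5/8/12/16(Ac) peptide (20 nM final) in 50 mM HEPES pH 7.3, 10 mM NaCl, 0.25 mM TCEP, 0.1% BSA, 0.005% Brij-35, 0.4% DMSO, 20 min at room temp.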

[1] = AlphaScreen, Table 29, read-out: CBP IC50

Chain of CBP (Q92793 1081-1197): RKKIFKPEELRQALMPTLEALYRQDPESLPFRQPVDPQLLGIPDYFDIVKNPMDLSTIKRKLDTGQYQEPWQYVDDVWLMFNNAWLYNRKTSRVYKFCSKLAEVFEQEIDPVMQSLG

Structure (SMILES)	IC50 [1]	IC50
CCOc1cc(=O)n(C)cc1-c1cn(Cc2ccccc2)nc1NC(C)=O [Example 187, N-[1-Benzyl-4-(4-ethoxy-1-methyl-6-oxo-1,6-dihydro-pyridin-3-yl)-1H-pyrazol-3-yl]-acetamide]		500 to 5000 nM
Cc1cccc(C)c1-c1cc(=O)n(C)cc1-c1cnn(Cc2ccccc2)c1 [Example 189, 5-(1-Benzyl-1H-pyrazol-4-yl)-4-(2,6-dimethyl-phenyl)-1-methyl-1H-pyridin-2-one]	> 5000 nM	
Cn1cc(-c2cc(=O)n(C)cc2-c2cnn(CC3CC3(F)F)c2)cn1 (stereo not drawn) [Example 192, 5-[1-(2,2-Difluoro-cyclopropylmethyl)-1H-pyrazol-4-yl]-1-methyl-4-(1-methyl-1H-pyrazol-4-yl)-1H-pyridin-2-one]	< 500 nM	
Cn1cc(-c2cnn(Cc3ccccc3)c2)c(-c2ccc(=O)[nH]c2)cc1=O [Example 194, 5′-(1-Benzyl-1H-pyrazol-4-yl)-1′-methyl-1H,1′H-[3,4′]bipyridinyl-6,2′-dione]	< 500 nM	
Cc1c(-c2cnn(Cc3ccccc3)c2)ccc(=O)n1C [Example 195, 5-(1-Benzyl-1H-pyrazol-4-yl)-1,6-dimethyl-1H-pyridin-2-one]	> 5000 nM	
CC(c1ccccc1)n1cc(-c2cc(N(C)C)c(=O)n(C)c2)cn1 (stereo not drawn) [Example 196, 3-Dimethylamino-1-methyl-5-[1-(1-phenyl-ethyl)-1H-pyrazol-4-yl]-1H-pyridin-2-one]	500 to 5000 nM	
CC(c1ccccc1)n1cc(-c2cc(C3CC3)c(=O)n(C)c2)cn1 (stereo not drawn) [Example 197, 3-Cyclopropyl-1-methyl-5-[1-(1-phenyl-ethyl)1H-pyrazol-4-yl]-1H-pyridin-2-one]	> 5000 nM	
CCOC(=O)c1c(-c2cc(C)c(=O)n(C)c2)cnn1Cc1ccccc1 [Example 199, 2-Benzyl-4-(1,5-dimethyl-6-oxo-1,6-dihydro-pyridin-3-yl)-2H-pyrazole-3-carboxylic acid ethyl ester]	< 500 nM	
Cn1cc(-c2cnn(Cc3ccccc3)c2)c(N)cc1=O [Example 200, 4-amino-5-(1-benzyl-1H-pyrazol-4-yl)-1-methylpyridin-2(1H)-one]	500 to 5000 nM	
CC(C)Oc1cc(=O)n(C)cc1-c1cnn(-c2ccccc2C#N)c1 [Example 202, 2-[4-(4-Isopropoxy-1-methyl-6-oxo-1,6-dihydro-pyridin-3-yl)-pyrazol-1-yl]-benzonitrile]	< 500 nM	
CC(C)Oc1cc(=O)n(C)cc1-c1cnn(-c2ccccc2C(=O)O)c1 [Example 203, 2-[4-(4-Isopropoxy-1-methyl-6-oxo-1,6-dihydro-pyridin-3-yl)-pyrazol-1-yl]-benzoic Acid]	< 500 nM	
Cn1cc(-c2cc(=O)n(C)cc2-c2cnn(-c3ccccc3C#N)c2)cn1 [Example 204, 2-{4-[1-Methyl-4-(1-methyl-1H-pyrazol-4-yl)-6-oxo-1,6-dihydro-pyridin-3-yl]-pyrazol-1-yl}-benzonitrile]	< 500 nM	
Cn1cc(-c2cnn(-c3ccccc3C#N)c2)c(-c2ccc(=O)[nH]c2)cc1=O [Example 206, 2-[4-(1′-Methyl-6,6′-dioxo-1,6,1′,6′-tetrahydro-[3,4′]bipyridinyl-3′-yl)-pyrazol-1-y]benzonitrile]	< 500 nM	
Cn1cc(-c2cnn(-c3ccccc3C#N)c2)c(C2CC2)cc1=O [Example 207, 2-[4-(4-Cyclopropyl-1-methyl-6-oxo-1,6-dihydro-pyridin-3-yl)-pyrazol-1-yl]-benzonitrile]	< 500 nM	
Cn1cc(-c2cc(=O)n(C)cc2-c2cnn(-c3ccccc3C(=O)O)c2)cn1 [Example 208, 2-{4-[1-Methyl-4-(1-methyl-1H-pyrazol-4-yl)-6-oxo-1,6-dihydro-pyridin-3-yl]-pyrazol-1-yl}-benzoic acid]	< 500 nM	
Cn1cc(-c2cc(=O)n(C)cc2-c2cnn(-c3ccccc3C#N)c2)ccc1=O [Example 209, 2-[4-(1,1′-Dimethyl-6,6′-dioxo-1,6,1′,6′-tetrahydro-[3,4′]bipyridinyl-3′-yl)-pyrazol-1-yl]-benzonitrile]	< 500 nM	
Cn1cc(-c2cnn(-c3ccccc3C(=O)O)c2)c(C2CC2)cc1=O [Example 211, 2-[4-(4-Cyclopropyl-1-methyl-6-oxo-1,6-dihydro-pyridin-3-yl)-pyrazol-1-yl]-benzoic acid]	< 500 nM	
Cn1cc(-c2cnn(-c3ccccc3C#N)c2)c(-c2ccccc2)cc1=O [Example 212, 2-[4-(1-Methyl-6-oxo-4-phenyl-1,6-dihydro-pyridin-3-yl)-pyrazol-1-yl]-benzonitrile]	< 500 nM	
Cn1cc(-c2cnn(-c3ccccc3C#N)c2)c(-c2ccc(C(N)=O)cc2)cc1=O [Example 218, 4-{5-[1-(2-Cyano-phenyl)-1H-pyrazol-4-yl]-1-methyl-2-oxo-1,2-dihydro-pyridin-4-yl}-benzamide]	< 500 nM	
COc1cc(-c2cc(=O)n(C)cc2-c2cnn(-c3ccccc3C#N)c2)ccn1 [Example 220, 2-[4-(2′-Methoxy-1-methyl-6-oxo-1,6-dihydro-[4,4′]bipyridinyl-3-yl)-pyrazol-1-yl]-benzonitrile]	< 500 nM	
Cn1ccc(-c2cc(=O)n(C)cc2-c2cnn(-c3ccccc3C#N)c2)cc1=O [Example 221, 2-[4-(1,1′-Dimethyl-6,2′-dioxo-1,6,1′,2′-tetrahydro-[4,4′]bipyridinyl-3-yl)-pyrazol-1-yl]-benzonitrile]	< 500 nM	

The next lines start with results.

IC50 [1]	Structure (SMILES)	IC50
< 500 nM	CCOc1cc(=O)n(C)cc1-c1cnn(-c2cc(OC3CC3)ccc2C#N)c1 [Example 184, 4-Cyclopropoxy-2-[4-(4-ethoxy-1-methyl-6-oxo-1,6-dihydro-pyridin-3-yl)-pyrazol-1-yl]-benzonitrile]	
< 500 nM	CCOc1cc(=O)n(C)cc1-c1cn(Cc2ccccc2)nc1[N+](=O)[O-] [Example 185, 5-(1-benzyl-3-nitro-1H-pyrazol-4-yl)-4-ethoxy-1-methylpyridin-2(1H)-one]	
< 500 nM	CCOc1cc(=O)n(C)cc1-c1cn(Cc2ccccc2)nc1N [Example 186, 5-(3-amino-1-benzyl-1H-pyrazol-4-yl)-4-ethoxy-1-methylpyridin-2(1H)-one]	
< 500 nM	Cn1cc(-c2cnn(CC3CC3(F)F)c2)c(-c2ccccc2)cc1=O (stereo not drawn) [Example 190, 5-[1-(2,2-Difluoro-cyclopropylmethyl)-1H-pyrazol-4-yl]-1-methyl-4-phenyl-1H-pyridin-2-one]	
< 500 nM	COc1ccc(-c2cc(=O)n(C)cc2-c2cnn(CC3CC3(F)F)c2)cc1 (stereo not drawn) [Example 191, 5-[1-(2,2-Difluoro-cyclopropylmethyl)-1H-pyrazol-4-yl]-4-(4-methoxy-phenyl)-1-methyl-1H-pyridin-2-one]	
< 500 nM	Cn1cc(-c2cnn(Cc3ccccc3)c2)c(-c2cc[nH]c(=O)c2)cc1=O [Example 193, 5-(1-Benzyl-1 H-pyrazol-4-yl)-1-methyl-1H,1′H-[4,4′]bipyridinyl-2,2′-dione]	
< 500 nM	CCOC(=O)c1nn(Cc2ccccc2)cc1-c1cc(C)c(=O)n(C)c1 [Example 198, 1-Benzyl-4-(1,5-dimethyl-6-oxo-1,6-dihydro-pyridin-3-yl)-1H-pyrazole-3-carboxylic acid ethyl ester]	
< 500 nM	Cn1cc(-c2cnn(Cc3ccccc3)c2)c(NCCC(=O)O)cc1=O [Example 201, 3-((5-(1-benzyl-1H-pyrazol-4-yl)-1-methyl-2-oxo-1,2-dihydropyridin-4-yl)amino)propanoic Acid]	
< 500 nM	Cn1cc(-c2cnn(-c3ccccc3C#N)c2)c(-c2cc[nH]c(=O)c2)cc1=O [Example 205, 2-[4-(1-Methyl-6,2′-dioxo-1,6,1′,2′-tetrahydro-[4,4′]bipyridinyl-3-yl)-pyrazol-1-yl]-benzonitrile]	
< 500 nM	Cc1cc(-c2cc(=O)n(C)cc2-c2cnn(-c3ccccc3C#N)c2)c[nH]c1=O [Example 210, 2-[4-(5,1′-Dimethyl-6,6′-dioxo-1,6,1′,6′-tetrahydro-[3,4′]bipyridinyl-3′-yl)-pyrazol-1-yl]-benzonitrile]	
< 500 nM	Cc1ccc(-c2cc(=O)n(C)cc2-c2cnn(-c3ccccc3C#N)c2)cc1 [Example 213, 2-[4-(1-Methyl-6-oxo-4-p-tolyl-1,6-dihydro-pyridin-3-yl)-pyrazol-1-yl]-benzonitrile]	
< 500 nM	Cn1cc(-c2cnn(-c3ccccc3C#N)c2)c(-c2ccc(Cl)cc2)cc1=O [Example 214, 2-{4-[4-(4-Chloro-phenyl)-1-methyl-6-oxo-1,6-dihydro-pyridin-3-yl]-pyrazol-1-yl}-benzonitrile]	
< 500 nM	Cn1cc(-c2cnn(-c3ccccc3C#N)c2)c(-c2ccc(F)cc2)cc1=O [Example 215, 2-{4-[4-(4-Fluoro-phenyl)-1-methyl-6-oxo-1,6-dihydro-pyridin-3-yl]-pyrazol-1-yl}-benzonitrile]	
< 500 nM	Cn1cc(-c2cnn(-c3ccccc3C#N)c2)c(-c2cccc(Cl)c2)cc1=O [Example 216, 2-{4-[4-(3-Chloro-phenyl)-1-methyl-6-oxo-1,6-dihydro-pyridin-3-yl]-pyrazol-1-yl}-benzonitrile]	
< 500 nM	Cn1cc(-c2cnn(-c3ccccc3C#N)c2)c(-c2ccc(C(=O)O)cc2)cc1=O [Example 217, 4-{5-[1-(2-Cyano-phenyl)-1H-pyrazol-4-yl]-1-methyl-2-oxo-1,2-dihydro-pyridin-4-yl}-benzoic acid]	
< 500 nM	CNC(=O)c1ccc(-c2cc(=O)n(C)cc2-c2cnn(-c3ccccc3C#N)c2)cc1 [Example 219, 4-{5-[1-(2-Cyano-phenyl)-1H-pyrazol-4-yl]-1-methyl-2-oxo-1,2-dihydro-pyridin-4-yl}-N-methyl-benzamide]	
< 500 nM	Cn1cc(-c2cnn(-c3ccccc3C#N)c2)c(-c2ccn(C3CC3)c(=O)c2)cc1=O [Example 222, 2-[4-(1′-Cyclopropyl-1-methyl-6,2′-dioxo-1,6,1′,2′-tetrahydro-[4,4′]bipyridinyl-3-yl)-pyrazol-1-yl]-benzonitrile]	
< 500 nM	Cc1ccc(-c2cc(=O)n(C)cc2-c2cnn(-c3ccccc3C(=O)O)c2)cc1 [Example 224, 2-[4-(1-Methyl-6-oxo-4-p-tolyl-1,6-dihydro-pyridin-3-yl)-pyrazol-1-yl]-benzoic acid]	
